{
  "source": "patent US12077503B2",
  "about": "“Substituted cyclic amides and their use as herbicides” (FMC CORPORATION, priority 2015, dated 2024)",
  "type_in_all_cases": "in vivo",
  "key": {"[1]": {"system": "velvetleaf (Abutilon theophrasti)", "test": "Test G Post-Emergence Protocol", "procedure": "(§1) Seeds of corn (Zea mays), giant foxtail (Setaria faberi), barnyardgrass (Echinochloa crus-galli), ivy-leaved morning glory (Ipomoea hederacea), redroot pigweed (Amaranthus retroflexus) and velvetleaf (Abutilon theophrasti) were sown in standard soil in pots. After cultivation for 8 days under controlled conditions in a glasshouse (at 24/16° C., day/night; 14 hours light; 65% humidity), the plants were sprayed with an aqueous spray solution derived from the formulation of the technical active ingredient in acetone/water (50:50) solution containing 0.5% Tween 20 (polyoxyethylene sorbitan monolaurate, CAS RN 9005-64-5) to give a final dose of 15.625, 62.5 or 250 g/ha of test compound.\n(§2) The test plants were then grown on under controlled conditions in a glasshouse (at 24/16° C., day/night; 14 hours light; 65% humidity) and watered twice daily. After 13 days the test was evaluated (100=total damage to plant; 0=no damage to plant). A dash (-) means no test result."}, "[2]": {"system": "barnyardgrass (Echinochloa crus-galli)", "test": "Test G Post-Emergence Protocol", "procedure": "as §1, §2"}, "corn (Zea mays) [3]": {"system": "corn (Zea mays)", "test": "Test G Post-Emergence Protocol", "procedure": "as §1, §2"}, "[4]": {"system": "giant foxtail (Setaria faberi)", "test": "Test G Post-Emergence Protocol", "procedure": "as §1, §2"}, "[5]": {"system": "redroot pigweed (Amaranthus retroflexus)", "test": "Test G Post-Emergence Protocol", "procedure": "as §1, §2"}, "[6]": {"system": "ivy-leaved morning glory (Ipomoea hederacea)", "test": "Test G Post-Emergence Protocol", "procedure": "as §1, §2"}, "[7]": {"system": "velvetleaf (Abutilon theophrasti)", "test": "Test G Pre-Emergence Protocol", "conditions": "evaluated after 13 days", "procedure": "as §1, with “one day” for “8 days”\nas §2"}, "[8]": {"system": "barnyardgrass (Echinochloa crus-galli)", "test": "Test G Pre-Emergence Protocol", "conditions": "evaluated after 13 days", "procedure": "as §1, with “one day” for “8 days”\nas §2"}, "corn (Zea mays) [9]": {"system": "corn (Zea mays)", "test": "Test G Pre-Emergence Protocol", "conditions": "evaluated after 13 days", "procedure": "as §1, with “one day” for “8 days”\nas §2"}, "[10]": {"system": "giant foxtail (Setaria faberi)", "test": "Test G Pre-Emergence Protocol", "conditions": "evaluated after 13 days", "procedure": "as §1, with “one day” for “8 days”\nas §2"}, "[11]": {"system": "redroot pigweed (Amaranthus retroflexus)", "test": "Test G Pre-Emergence Protocol", "conditions": "evaluated after 13 days", "procedure": "as §1, with “one day” for “8 days”\nas §2"}, "[12]": {"system": "ivy-leaved morning glory (Ipomoea hederacea)", "test": "Test G Pre-Emergence Protocol", "conditions": "evaluated after 13 days", "procedure": "as §1, with “one day” for “8 days”\nas §2"}, "[13]": {"conditions": "15.625 g ai/ha, evaluated after 13 days (100=total damage to plant; 0=no damage to plant)"}, "[14]": {"conditions": "62.5 g ai/ha, evaluated after 13 days"}, "[15]": {"conditions": "250 g ai/ha, evaluated after 13 days"}, "[16]": {"conditions": "62.5 g ai/ha, 100=total damage to plant, 0=no damage to plant"}},
  "data": [
    {"smiles": "CN1CC(c2ccc(C(F)(F)F)cc2)C(C(=O)Nc2cccc(F)c2[N+](=O)[O-])C1=O", "note": "(racemic) [Compound 1546]", "values": [
      {"measurement": "Velvetleaf damage rating", "setting": "[1]; [13]", "result": 0},
      {"measurement": "Velvetleaf damage rating (100=total damage to plant; 0=no damage to plant)", "setting": "[1]; [14]", "result": 0},
      {"measurement": "damage to plant, Velvetleaf (100=total damage to plant; 0=no damage to plant)", "setting": "[1]; [15]", "result": 10},
      {"measurement": "Barnyardgrass damage rating", "setting": "[2]; [13]", "result": 40},
      {"measurement": "Barnyardgrass damage rating (100=total damage to plant; 0=no damage to plant)", "setting": "[2]; [14]", "result": 70},
      {"measurement": "damage to plant, Barnyardgrass (100=total damage to plant; 0=no damage to plant)", "setting": "[2]; [15]", "result": 80},
      {"measurement": "Corn damage rating", "setting": "corn (Zea mays) [3]; [13]", "result": 0},
      {"measurement": "Corn damage rating (100=total damage to plant; 0=no damage to plant)", "setting": "corn (Zea mays) [3]; [14]", "result": 20},
      {"measurement": "damage to plant, Corn (100=total damage to plant; 0=no damage to plant)", "setting": "corn (Zea mays) [3]; [15]", "result": 50},
      {"measurement": "Foxtail, Giant damage rating", "setting": "[4]; [13]", "result": 60},
      {"measurement": "Foxtail, Giant damage rating (100=total damage to plant; 0=no damage to plant)", "setting": "[4]; [14]", "result": 80},
      {"measurement": "damage to plant, Foxtail, Giant (100=total damage to plant; 0=no damage to plant)", "setting": "[4]; [15]", "result": 80},
      {"measurement": "Pigweed, Redroot damage rating", "setting": "[5]; [13]", "result": 30},
      {"measurement": "Pigweed, Redroot damage rating (100=total damage to plant; 0=no damage to plant)", "setting": "[5]; [14]", "result": 60},
      {"measurement": "damage to plant, Pigweed, Redroot (100=total damage to plant; 0=no damage to plant)", "setting": "[5]; [15]", "result": 60},
      {"measurement": "Morningglory, Ivy-leaved damage rating", "setting": "[6]; [13]", "result": 0},
      {"measurement": "Morningglory, Ivy-leaved damage rating (100=total damage to plant; 0=no damage to plant)", "setting": "[6]; [14]", "result": 20},
      {"measurement": "damage to plant, Morningglory, Ivy-leaved (100=total damage to plant; 0=no damage to plant)", "setting": "[6]; [15]", "result": 30},
      {"measurement": "Velvetleaf damage rating (100=total damage to plant; 0=no damage to plant)", "setting": "[7]; 15.625 g ai/ha", "result": 0},
      {"measurement": "plant damage rating, Velvetleaf", "setting": "[7]; [16]", "result": 0},
      {"measurement": "Velvetleaf damage rating (100=total damage to plant; 0=no damage to plant)", "setting": "[7]; 250 g ai/ha", "result": 0},
      {"measurement": "Barnyardgrass damage rating (100=total damage to plant; 0=no damage to plant)", "setting": "[8]; 15.625 g ai/ha", "result": 0},
      {"measurement": "plant damage rating, Barnyardgrass", "setting": "[8]; [16]", "result": 20},
      {"measurement": "Barnyardgrass damage rating (100=total damage to plant; 0=no damage to plant)", "setting": "[8]; 250 g ai/ha", "result": 80},
      {"measurement": "Corn damage rating (100=total damage to plant; 0=no damage to plant)", "setting": "corn (Zea mays) [9]; 15.625 g ai/ha", "result": 0},
      {"measurement": "plant damage rating, Corn", "setting": "corn (Zea mays) [9]; [16]", "result": 10},
      {"measurement": "Corn damage rating (100=total damage to plant; 0=no damage to plant)", "setting": "corn (Zea mays) [9]; 250 g ai/ha", "result": 40},
      {"measurement": "Foxtail, Giant damage rating (100=total damage to plant; 0=no damage to plant)", "setting": "[10]; 15.625 g ai/ha", "result": 60},
      {"measurement": "plant damage rating, Foxtail, Giant", "setting": "[10]; [16]", "result": 80},
      {"measurement": "Foxtail, Giant damage rating (100=total damage to plant; 0=no damage to plant)", "setting": "[10]; 250 g ai/ha", "result": 90},
      {"measurement": "Pigweed, Redroot damage rating (100=total damage to plant; 0=no damage to plant)", "setting": "[11]; 15.625 g ai/ha", "result": 0},
      {"measurement": "plant damage rating, Pigweed, Redroot", "setting": "[11]; [16]", "result": 30},
      {"measurement": "Pigweed, Redroot damage rating (100=total damage to plant; 0=no damage to plant)", "setting": "[11]; 250 g ai/ha", "result": 70},
      {"measurement": "Morning-glory, Ivy-leaved damage rating (100=total damage to plant; 0=no damage to plant)", "setting": "[12]; 15.625 g ai/ha", "result": 0},
      {"measurement": "plant damage rating, Morningglory, Ivy-leaved", "setting": "[12]; [16]", "result": 20},
      {"measurement": "Morningglory, Ivy-leaved damage rating (100=total damage to plant; 0=no damage to plant)", "setting": "[12]; 250 g ai/ha", "result": 40}
    ]}
  ]
}
